Values quoted from earlier work, collected in publication PMC3176332 (European journal of medicinal chemistry, 2009).

Tested on: ERβ
Conditions: relative to estradiol

For `O=c1c(-c2ccc(O)cc2)coc2cc(O)cc(O)c12` [compound 2, genistein], the ERβ binding selectivity is listed as 20 fold.
